Measurements published in PubChem BioAssay AID248 (DTP/NCI, 2004).
Values joined by “and” are separate entries in the source; they are usually repeats but may differ in a detail not shown here. Equal values may be shown once. Toxic doses and inconclusive results are not listed. Rule as the data show it: active = T/C of 150% or more; inactive = T/C below 125%.

Test system: L1210 leukemia ip in BDF1 mice, survival T/C
Experiment: NCI In Vivo Anticancer Drug Screen. Data for tumor model L1210 Leukemia (intraperitoneal) in B6D2F1 (BDF1) mice
Settings: endpoint: mean survival time, higher = longer survival
Outline: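 Tumor cells were implanted, animals were treated, and survival was followed. The result divides the treated measurement by the vehicle-control measurement.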

[1] = dose: 100.0 mg/kg/injection, schedule: Q01DX001 (ip), vehicle: saline with Tween-80
[2] = dose: 200.0 mg/kg/injection, schedule: Q01DX001 (ip), vehicle: saline with Tween-80
[3] = dose: 400.0 mg/kg/injection, schedule: Q01DX001 (ip), vehicle: saline with Tween-80
[4] = dose: 100.0 mg/kg/injection, schedule: Q01DX001 (ip), vehicle: saline
[5] = dose: 200.0 mg/kg/injection, schedule: Q01DX001 (ip), vehicle: saline
[6] = dose: 400.0 mg/kg/injection, schedule: Q01DX001 (ip), vehicle: saline
[7] = dose: 100.0 mg/kg/injection, schedule: Q01DX009 (ip), vehicle: saline with Tween-80
[8] = dose: 200.0 mg/kg/injection, schedule: Q01DX009 (ip), vehicle: saline with Tween-80
[9] = dose: 400.0 mg/kg/injection, schedule: Q01DX009 (ip), vehicle: saline with Tween-80
[10] = dose: 100.0 mg/kg/injection, schedule: Q01DX009 (ip), vehicle: Klucel (hydroxypropylcellulose) (HPC)
[11] = dose: 100.0 mg/kg/injection, schedule: Q04DX003 (ip), vehicle: Klucel (hydroxypropylcellulose) (HPC)
[12] = dose: 200.0 mg/kg/injection, schedule: Q01DX009 (ip), vehicle: Klucel (hydroxypropylcellulose) (HPC)
[13] = dose: 200.0 mg/kg/injection, schedule: Q04DX003 (ip), vehicle: Klucel (hydroxypropylcellulose) (HPC)
[14] = dose: 400.0 mg/kg/injection, schedule: Q01DX009 (ip), vehicle: Klucel (hydroxypropylcellulose) (HPC)
[15] = dose: 400.0 mg/kg/injection, schedule: Q04DX003 (ip), vehicle: Klucel (hydroxypropylcellulose) (HPC)

Measured: T/C

CCCC[CH2][Sn]([CH2]CCCC)[CH2]CCCC.CCCC[CH2][Sn]([CH2]CCCC)[CH2]CCCC
inactive: dose: 100.0 mg/kg/injection, schedule: Q04DX002 (sc), vehicle: olive oil, sesame oil, peanut oil 115 % of control | dose: 200.0 mg/kg/injection, schedule: Q04DX002 (sc), vehicle: olive oil, sesame oil, peanut oil 99 % of control | dose: 400.0 mg/kg/injection, schedule: Q04DX002 (sc), vehicle: olive oil, sesame oil, peanut oil 105 % of control

CCOC(=O)C(C)(C)Oc1ccc(O)cc1
inactive: [1] 105 % of control | [2] 105 % of control | [3] 97 % of control

CC1=C2CC[C@H]3[C@@H]4CC[C@H](O)[C@@]4(C)CC[C@@H]3[C@@]2(C)CCC1=O
inactive: dose: 100.0 mg/kg/injection, schedule: Q01DX001 (sc), vehicle: steriod suspending solution 98 % of control | dose: 200.0 mg/kg/injection, schedule: Q01DX001 (sc), vehicle: steriod suspending solution 98 % of control | dose: 400.0 mg/kg/injection, schedule: Q01DX001 (sc), vehicle: steriod suspending solution 96 % of control | dose: 800.0 mg/kg/injection, schedule: Q01DX001 (sc), vehicle: steriod suspending solution 96 % of control

O=C1NC(=O)C2(CCN(c3ccccc3)CC2)C(=O)N1
inactive: [4] 94 % of control | [5] 96 % of control | [6] 96 % of control

O=[N+]([O-])c1cccc(CO)c1-c1c(CO)cccc1[N+](=O)[O-]
inactive: [7] 101 % of control | [8] 102 % of control | [9] 101 % of control

C=CCN(CC=C)C(=S)Nc1cccc(Cl)c1
inactive: dose: 100.0 mg/kg/injection, schedule: Q01DX001 (ip), vehicle: other 103 % of control | dose: 200.0 mg/kg/injection, schedule: Q01DX001 (ip), vehicle: other 100 % of control | dose: 400.0 mg/kg/injection, schedule: Q01DX001 (ip), vehicle: other 100 % of control

S=c1nc[nH]c2n[nH]nc12
inactive: dose: 12.5 mg/kg/injection, schedule: Q01DX001 (ip), vehicle: saline with Tween-80 104 % of control | dose: 25.0 mg/kg/injection, schedule: Q01DX001 (ip), vehicle: saline with Tween-80 103 % of control | dose: 50.0 mg/kg/injection, schedule: Q01DX001 (ip), vehicle: saline with Tween-80 98 % of control | [1] 98 % of control | [2] 101 % of control | [3] 103 % of control

COC(=O)c1cc(C(=O)OC)c(C(=O)OC)cc1C(=O)OC
inactive: [7] 101 % of control | [8] 98 % of control | [9] 98 % of control

C#CC1(O)CCC2C3CCc4cc(OC)ccc4C3CCC21C (stereo not given)
inactive: dose: 10.0 mg/kg/injection, schedule: Q01DX009 (sc), vehicle: saline with Tween-80 102 % of control | dose: 100.0 mg/kg/injection, schedule: Q04DX003 (sc), vehicle: olive oil, sesame oil, peanut oil 102 % of control | dose: 200.0 mg/kg/injection, schedule: Q01DX009 (sc), vehicle: saline with Tween-80 98 % of control | dose: 200.0 mg/kg/injection, schedule: Q04DX003 (sc), vehicle: olive oil, sesame oil, peanut oil 102 % of control | dose: 400.0 mg/kg/injection, schedule: Q01DX009 (sc), vehicle: saline with Tween-80 96 % of control | dose: 400.0 mg/kg/injection, schedule: Q04DX003 (sc), vehicle: olive oil, sesame oil, peanut oil 100 % of control

O=C(O)Cc1cccc(C(=O)O)c1
inactive: [4] 103 % of control | [5] 104 % of control | [6] 115 % of control

NOCc1csc(NC(=O)Nc2ccccc2)n1
inactive: dose: 18.8 mg/kg/injection, schedule: Q01DX009 (ip), vehicle: saline with Tween-80 95 % of control | dose: 37.5 mg/kg/injection, schedule: Q01DX009 (ip), vehicle: saline with Tween-80 103 % of control | dose: 75.0 mg/kg/injection, schedule: Q01DX009 (ip), vehicle: saline with Tween-80 105 % of control

[O-]/[N+](=C\C=C\c1ccccc1)c1ccccc1
inactive: [10] 100 % of control | [11] 103 % of control | [12] 90 % of control | [13] 95 % of control | [14] 89 % of control | [15] 86 % of control

O=C(CNC(=O)Nc1nccs1)N/N=C/c1cccc([N+](=O)[O-])c1
inactive: [10] 97 % of control | [12] 100 % of control and 90 % of control | [14] 97 % of control

O=CN/N=C/c1cccc([N+](=O)[O-])c1
inactive: dose: 75.0 mg/kg/injection, schedule: Q01DX001 (ip), vehicle: saline 95 % of control | dose: 150.0 mg/kg/injection, schedule: Q01DX001 (ip), vehicle: saline 95 % of control | dose: 300.0 mg/kg/injection, schedule: Q01DX001 (ip), vehicle: saline 92 % of control

O=C(CCl)OCC1CC2C=CC1C2 (stereo not given)
inactive: dose: 222.0 mg/kg/injection, schedule: Q01DX Z (ip), vehicle: saline 98 % of control | dose: 333.0 mg/kg/injection, schedule: Q01DX Z (ip), vehicle: saline 100 % of control | dose: 500.0 mg/kg/injection, schedule: Q01DX Z (ip), vehicle: saline 96 % of control

CCOC1C(Br)=Cc2ccccc2N1C(=O)OC (stereo not given)
inactive: dose: 100.0 mg/kg/injection, schedule: Q01DX001 (ip), vehicle: Klucel (hydroxypropylcellulose) (HPC) 101 % of control | dose: 200.0 mg/kg/injection, schedule: Q01DX001 (ip), vehicle: Klucel (hydroxypropylcellulose) (HPC) 97 % of control | dose: 400.0 mg/kg/injection, schedule: Q01DX001 (ip), vehicle: Klucel (hydroxypropylcellulose) (HPC) 101 % of control

CCOC(=O)C1(C(C)C)OC2(O)C3CCCN3CC(C(C)C)N2C1=O (stereo not given)
inactive: dose: 6.25 mg/kg/injection, schedule: Q01DX009 (ip), vehicle: saline with Tween-80 100 % of control | dose: 12.5 mg/kg/injection, schedule: Q01DX009 (ip), vehicle: saline with Tween-80 113 % of control | dose: 25.0 mg/kg/injection, schedule: Q01DX009 (ip), vehicle: saline with Tween-80 100 % of control | dose: 25.0 mg/kg/injection, schedule: Q04DX003 (ip), vehicle: saline with Tween-80 94 % of control | dose: 50.0 mg/kg/injection, schedule: Q01DX009 (ip), vehicle: saline with Tween-80 103 % of control | dose: 50.0 mg/kg/injection, schedule: Q04DX003 (ip), vehicle: saline with Tween-80 103 % of control | [7] 96 % of control | dose: 100.0 mg/kg/injection, schedule: Q04DX003 (ip), vehicle: saline with Tween-80 94 % of control

CCCCCCCCCCCC(=O)NC(=S)NCc1cccnc1
inactive: [1] 92 % of control | [7] 101 % of control and 105 % of control | dose: 100.0 mg/kg/injection, schedule: Q04DX002 (ip), vehicle: saline with Tween-80 98 % of control and 100 % of control | [2] 93 % of control | [8] 99 % of control and 107 % of control | dose: 200.0 mg/kg/injection, schedule: Q04DX002 (ip), vehicle: saline with Tween-80 108 % of control and 112 % of control | [3] 98 % of control | [9] 96 % of control and 108 % of control | dose: 400.0 mg/kg/injection, schedule: Q04DX002 (ip), vehicle: saline with Tween-80 105 % of control

c1ccc(-c2nnc(-c3ccccc3)o2)cc1
inactive: dose: 50.0 mg/kg/injection, schedule: Q01DX009 (ip), vehicle: Klucel (hydroxypropylcellulose) (HPC) 95 % of control | [10] 101 % of control | [12] 94 % of control

CN1C(=O)NC(=O)C12CCNCC2
inactive: [4] 97 % of control | [5] 103 % of control | [6] 101 % of control

CC1Cc2c(Cl)cc(C(=O)NC(Cc3ccccc3)C(=O)O)c(O)c2C(=O)O1 (stereo not given)
inactive: dose: 0.12 mg/kg/injection, schedule: Q01DX009 (ip), vehicle: saline with Tween-80 95 % of control | dose: 0.25 mg/kg/injection, schedule: Q01DX009 (ip), vehicle: saline with Tween-80 93 % of control | dose: 0.5 mg/kg/injection, schedule: Q01DX009 (ip), vehicle: saline with Tween-80 96 % of control | dose: 1.0 mg/kg/injection, schedule: Q01DX009 (ip), vehicle: saline with Tween-80 96 % of control | dose: 50.0 mg/kg/injection, schedule: Q01DX001 (ip), vehicle: carboxymethylcellulose (CMC) 100 % of control | dose: 100.0 mg/kg/injection, schedule: Q01DX001 (ip), vehicle: carboxymethylcellulose (CMC) 107 % of control

O=C(CNc1ccccc1)c1ccc(O)c(C(=O)O)c1 (tested in a mixture with another compound)
inactive: [11] 91 % of control | [13] 90 % of control | [15] 93 % of control
